Active and inactive are the calls of the source. The rule behind the calls is not given here.
What follows are compounds tested against Mu-type opioid receptor (Homo sapiens) + Delta-type opioid receptor (Homo sapiens) (UniProt P35372+P41143) (assay: agonists of MOR-DOR heterodimerization, dose response, cell-based, luminescence (AID 588407;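 note: potency of agonists raising the heterodimer signal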)). Settings: cells.
Sequence of Mu-type opioid receptor (Homo sapiens) + Delta-type opioid receptor (Homo sapiens) (P35372 whole entry, looked up): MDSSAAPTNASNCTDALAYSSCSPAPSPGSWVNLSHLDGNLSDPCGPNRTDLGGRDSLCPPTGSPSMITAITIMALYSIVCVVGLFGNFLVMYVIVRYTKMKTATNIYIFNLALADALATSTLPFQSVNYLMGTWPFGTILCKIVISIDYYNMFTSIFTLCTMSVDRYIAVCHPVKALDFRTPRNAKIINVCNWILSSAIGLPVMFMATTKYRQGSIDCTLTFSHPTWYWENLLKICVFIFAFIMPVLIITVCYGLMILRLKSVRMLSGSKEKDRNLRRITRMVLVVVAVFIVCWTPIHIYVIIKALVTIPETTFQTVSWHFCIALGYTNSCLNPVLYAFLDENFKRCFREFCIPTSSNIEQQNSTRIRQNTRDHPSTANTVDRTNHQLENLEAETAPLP
Sequence of Mu-type opioid receptor (Homo sapiens) + Delta-type opioid receptor (Homo sapiens) (P41143 whole entry, looked up): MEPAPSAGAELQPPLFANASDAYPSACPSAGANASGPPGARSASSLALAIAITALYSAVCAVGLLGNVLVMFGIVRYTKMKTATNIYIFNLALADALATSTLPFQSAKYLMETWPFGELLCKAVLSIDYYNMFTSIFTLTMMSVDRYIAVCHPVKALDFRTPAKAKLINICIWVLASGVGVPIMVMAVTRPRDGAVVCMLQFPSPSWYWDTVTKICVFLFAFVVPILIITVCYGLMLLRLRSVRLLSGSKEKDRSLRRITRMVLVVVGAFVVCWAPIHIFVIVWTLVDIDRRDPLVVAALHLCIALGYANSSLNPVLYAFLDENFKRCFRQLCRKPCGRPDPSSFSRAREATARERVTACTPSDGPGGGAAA

Compound	EC50
COc1ccc(C(CNc2ncnc3sc(C)c(C)c23)N(C)C)cc1 (centres undefined)	6.83 µM
OCC1(CCc2ccccc2)CCN(Cc2cc(F)ccc2-n2cccn2)CC1	4.67 µM
O=C(COc1ccc(/C=N/NC(=O)c2cc3ccccc3o2)cc1Br)Nc1ccccc1	9.7 µM
CN(C)CCCN(C(=O)c1ccc(Br)s1)c1nc2cc3c(cc2s1)OCCO3	inactive
COC(=O)NCC(c1ccc2c(c1)OCO2)N1CCN(c2ccccc2)CC1 (centres undefined)	1.25 µM
Cc1ccc2nc(SC(C(=O)Nc3ccc(F)cc3)c3ccccc3)[nH]c2c1 (centres undefined)	> 92.5 µM (inactive)
Cc1ccc(-n2cc(CNC(C)c3cnn(C)c3)c(-c3ccc(F)cc3)n2)cc1 (centres undefined)	0.151 µM
COc1ccc2c(Cl)c(-c3nnc(SCC(=O)c4ccccc4)n3C)sc2c1	0.942 µM
CCN1CCN(c2ccc([N+](=O)[O-])c(Sc3nc4ccccc4[nH]3)c2)CC1	4.66 µM
CCOC(=O)C1(CCOc2ccccc2)CCN(Cc2ccc3c(c2)OCCO3)CC1	inactive
Cc1cc(N2CCN(C)CC2)ccc1NC(=O)c1ccc(-c2ccc(Cl)cc2)o1	inactive
COc1ccc(-c2nc(CN3CCC(C(=O)NC4CCCc5ccccc54)CC3)c(C)o2)cc1OC (centres undefined)	1.9 µM
COC(=O)C(Cc1cccc(C)n1)(c1ccccc1)c1ccccc1	3.93 µM
OC(CN1CCN(C(c2ccccc2)c2ccccc2)CC1)c1ccccc1 (centres undefined)	inactive
CCN(CC)Cc1cc(Nc2c3ccccc3nc3c4ccccc4n(C)c23)cc(CN(CC)CC)c1O	1.78 µM
O=C(C=P(c1ccccc1)(c1ccccc1)c1ccccc1)c1ccccc1-c1ccccc1C(=O)C=P(c1ccccc1)(c1ccccc1)c1ccccc1	> 92.5 µM (inactive)
CCOC(=O)C1(CC2CCCCO2)CCN(Cc2cc(F)ccc2-n2cccn2)CC1 (centres undefined)	8.74 µM
CN(C)C(CNC(=O)c1ccc(Br)cc1)c1ccco1 (centres undefined)	inactive
Cc1ccccc1NC(=S)NCC(c1cccnc1)N(C)C (centres undefined)	1.54 µM
CN1CCN(c2ccc(NC(=O)c3ccc(-c4ccc(Br)cc4)o3)cc2)CC1	1.92 µM
O=C(Nc1ccccc1)c1ccc(NC2CCCCC2)c(S(=O)(=O)N2CCOCC2)c1	inactive
CN(C)C(CNC(=O)CSC(=S)N1CCCC1)c1ccccc1 (centres undefined)	0.969 µM
CC1CN(C)C(C)c2c1oc1ccc(N)cc21 (centres undefined)	inactive
CC[C@@H](C)[C@@H]1CN([C@@H](CN2CCC[C@H]2CN2C(N)=NC[C@H]2C(C)C)C(C)C)C(=N)N1CCc1ccc(Cl)c(Cl)c1	2.36 µM
COc1ccccc1CN1CCN(C(CC(C)C)c2nnnn2Cc2cccs2)CC1 (centres undefined)	inactive

Compound	EC50
Cc1cccc(NC(=S)NC(=O)CCc2ccccc2)c1	> 92.5 µM (inactive)
Cc1cc(C)cc(C(=O)N(CCc2ccccc2)C2=CC3CCC(C2)N3C)c1 (centres undefined)	5.91 µM
COc1ccc(C(CNC(=O)c2cncc(Br)c2)N(C)C)cc1 (centres undefined)	2.02 µM
Cc1cc(Cl)ccc1OCC(=O)N[C@@H](Cc1ccccc1)c1nc2ccccc2[nH]1	inactive
Cc1ccccc1Cn1c(O)c(N=NC(=S)Nc2ccccc2F)c2ccccc21	> 92.5 µM (inactive)
CCOC(=O)C1(CCOc2ccccc2)CCN(Cc2cnc(C)s2)CC1	7.89 µM
CC(=O)NC(CC(=O)NCC(c1ccco1)N(C)C)c1ccccc1 (centres undefined)	1.06 µM
CCOC(=O)C1(c2ccccc2)CCN(CCC(=O)Nc2ccc(F)cc2)CC1	2.36 µM
COc1ccccc1NC(=O)c1sc2nc(C)cc(C)c2c1N	> 92.5 µM (inactive)
Oc1ccc(Oc2ccc3c(C(F)(F)F)cc(C(F)(F)F)nc3n2)cc1	inactive
Cc1ccc(C)c(NC(=S)NCC(c2ccccc2)N(C)C)c1 (centres undefined)	0.535 µM
COc1ccc(-n2cc(CNCc3cccnc3)c(-c3cccc(F)c3)n2)cc1	inactive
Cc1cc(/C=C2/C(=O)NN(c3ccccc3)C2=O)c(C)n1-c1ccc(O)cc1	8.46 µM
CSCCC(/C(O)=C(\C#N)c1nc2ccccc2[nH]1)N1C(=O)c2ccccc2C1=O (centres undefined)	9.92 µM
Cc1ccc(Cn2c(=N)n(CC(O)COc3ccccc3)c3ccccc32)cc1 (centres undefined)	inactive
COc1ccc(C(CNC(=O)c2ccc3c(c2)CCC3)N(C)C)cc1 (centres undefined)	0.0459 µM
CN(C)C(CNC(=O)Cc1ccc([N+](=O)[O-])cc1)c1ccccc1 (centres undefined)	7.74 µM
Cn1c(CN2CCN(c3cccc(Cl)c3)CC2)nc2ccccc21	3.34 µM
CCc1cccc(C)c1NC(=S)NCC(c1cccnc1)N(C)C (centres undefined)	3.68 µM
Cc1c(CCOC(=O)c2ccccc2)sc[n+]1CC(=O)c1ccc(Br)cc1	inactive
COc1cccc(CC2(CO)CCCN(Cc3ccccc3-c3ccco3)C2)c1 (centres undefined)	8.88 µM
COc1ccc(/C=C/C(=O)NC(=S)NCCc2ccc(OC)c(OC)c2)cc1	8.72 µM
COc1ccc2c(c1)C=C(CN1CCC(CO)(CCc3ccccc3)CC1)CO2	inactive
COc1ccc(NS(=O)(=O)c2ccc(O)c(NC(=O)c3cc4c(C)nn(-c5ccc(F)cc5)c4s3)c2)cc1	> 92.5 µM (inactive)
CSC(=Nc1ccccc1)N=C(SCc1ccccc1)N(C)C	7.33 µM

Compound	EC50
CC1[C@H]2Cc3ccc(O)cc3[C@]1(C)CCN2C (some centres undefined)	inactive
Cc1ccc2c(C)c(C(=O)N(Cc3cccs3)C3CCS(=O)(=O)C3)oc2c1 (centres undefined)	7.04 µM
CN(C)C(CNC(=O)c1cccc(C(F)(F)F)c1)c1ccco1 (centres undefined)	> 92.4 µM (inactive)
C/C(=N/Nc1ccnc2cc(Cl)ccc12)c1ccc(N)cc1	inactive
CC(=O)Nc1ccc(CN2CCCC(C(=O)c3cccc(C(F)(F)F)c3)C2)cc1 (centres undefined)	9.35 µM
CC(C)n1ncc2c(C(=O)Nc3cccc(C#N)c3)cc(C3CC3)nc21	3.59 µM
CCOC(=O)C1(CCOC)CCN(Cc2ccccc2-c2ccco2)CC1	3.18 µM
Cc1ccc(C)c(-n2cc(CNCCCn3cccn3)c(-c3ccccc3)n2)c1	0.654 µM
CC(CC(=O)N(CCC1=CCCCC1)c1c(N)n(Cc2ccccc2)c(=O)[nH]c1=O)c1ccccc1 (centres undefined)	> 92.5 µM (inactive)
c1ccc(C2(N3CCCCC3)CCCCC2)cc1	0.961 µM
CN(C)C(CNC(=S)Nc1cccc(Cl)c1)c1ccccc1 (centres undefined)	0.375 µM
Cc1cccc2cc(C(c3nnnn3Cc3ccccc3)N3CCN(C)CC3)c(=O)[nH]c12 (centres undefined)	inactive
COc1ccc(-n2c3c(cc(C(=O)NNc4ccccc4C)c2=O)C(=O)CC(C)(C)C3)cc1	2.55 µM
CCOC(=O)C1(Cc2ccccc2)CCN(Cc2cccn2-c2cccnc2)CC1	inactive
COc1ccc(C(CNC(=O)CCc2ccsc2)N(C)C)cc1 (centres undefined)	0.2 µM
Cc1ccc2c(Cl)c(Cc3ccccc3)c(=S)[nH]c2n1	inactive
COC(=O)CCCNC(=O)c1ccc(OC2CCN(CCc3ccccc3)CC2)cc1	inactive
CN(C)CCCN(C(=O)c1ccc(S(=O)(=O)N(C)Cc2ccccc2)cc1)c1nc2c(F)cccc2s1	4.97 µM
CCOC(=O)C1(CC2CC2)CCN(Cc2cnc(-c3ccccc3C)nc2)CC1	inactive
CCn1cc(CNCc2cn(-c3ccccc3C)nc2-c2ccc(OC)c(F)c2)cn1	1.75 µM
COc1cc(Br)cc(/C=N/NC(=O)Cc2ccc(C(F)(F)F)cc2[N+](=O)[O-])c1O	inactive
CCOc1ccc(S(=O)(=O)Nc2cccc(C(=O)NCC(c3ccccc3)N(C)C)c2)cc1 (centres undefined)	7.76 µM
Cc1cccc(NC(=S)NCC(c2cccnc2)N(C)C)c1C (centres undefined)	0.303 µM
CCC(=O)C(CCN1CCOCC1)(c1ccccc1)c1ccccc1	0.982 µM
